Experimental findings from patent publication US9334269B2, “Carboxamides as inhibitors of voltage-gated sodium channels” (AMGEN INC., priority 2010, dated 2016) are described below.

The target in the assay is T1, human Nav1.7 (hNav1.7) (Homo sapiens, UniProt Q15858).
T1 construct: expressed in transfected cells
In words: hNav1.7 whole-cell patch-clamp electrophysiology (automated PatchXpress 7000A or manual) in stably expressing 293 cells. As to conditions: average IC50, human Nav1.7. It is filed as cell-based. How it is done:
Compounds were tested on human Nav1.7 (hNav1.7) expressed stably in 293 cells, which have no endogenous sodium channels. Two forms of whole-cell patch-clamp assays were used. In both, peak current through Nav1.7 was evoked by a depolarizing voltage pulse, and currents were monitored as a function of time in response to exposure to several different concentrations of drug. Automated electrophysiology uses the PatchXpress 7000A system. Up to sixteen cells at a time were voltage-clamped in parallel, and the steady-state voltage dependence of inactivation was determined experimentally for each cell. For each cell, fractional inactivation was set at 20%, and peak current through Nav1.7 as a function of time was measured in response to increasing concentrations of test compound. Manual electrophysiology refers to conventional whole-cell patch-clamping (Hamill et al., 1981). After formation of the whole-cell clamp, cells were lifted off the bottom of the dish with the patch pipette and positioned directly in front of an array of glass microperfusion tubes each with internal diameter about 250 microns, with individual compound concentrations flowing from each tube. Current as a function of time in response to increasing drug concentrations was measured with Nav1.7 fully in the resting state (holding voltage set to −140 mV) and on the same cells with the holding voltage set to produce about 20% inactivation. Compounds were not applied for a prespecified time, but for as long as required to achieve a stable level of block. For both forms of electrophysiology, offline analysis was used to correct for rundown of channel current and to determine percent inhibition as a function of drug concentration. IC50 were determined by fitting to the Hill equation.
On the technique in general: In patch-clamp work, channel activity is measured electrically.

T1 sequence (Q15858 whole entry): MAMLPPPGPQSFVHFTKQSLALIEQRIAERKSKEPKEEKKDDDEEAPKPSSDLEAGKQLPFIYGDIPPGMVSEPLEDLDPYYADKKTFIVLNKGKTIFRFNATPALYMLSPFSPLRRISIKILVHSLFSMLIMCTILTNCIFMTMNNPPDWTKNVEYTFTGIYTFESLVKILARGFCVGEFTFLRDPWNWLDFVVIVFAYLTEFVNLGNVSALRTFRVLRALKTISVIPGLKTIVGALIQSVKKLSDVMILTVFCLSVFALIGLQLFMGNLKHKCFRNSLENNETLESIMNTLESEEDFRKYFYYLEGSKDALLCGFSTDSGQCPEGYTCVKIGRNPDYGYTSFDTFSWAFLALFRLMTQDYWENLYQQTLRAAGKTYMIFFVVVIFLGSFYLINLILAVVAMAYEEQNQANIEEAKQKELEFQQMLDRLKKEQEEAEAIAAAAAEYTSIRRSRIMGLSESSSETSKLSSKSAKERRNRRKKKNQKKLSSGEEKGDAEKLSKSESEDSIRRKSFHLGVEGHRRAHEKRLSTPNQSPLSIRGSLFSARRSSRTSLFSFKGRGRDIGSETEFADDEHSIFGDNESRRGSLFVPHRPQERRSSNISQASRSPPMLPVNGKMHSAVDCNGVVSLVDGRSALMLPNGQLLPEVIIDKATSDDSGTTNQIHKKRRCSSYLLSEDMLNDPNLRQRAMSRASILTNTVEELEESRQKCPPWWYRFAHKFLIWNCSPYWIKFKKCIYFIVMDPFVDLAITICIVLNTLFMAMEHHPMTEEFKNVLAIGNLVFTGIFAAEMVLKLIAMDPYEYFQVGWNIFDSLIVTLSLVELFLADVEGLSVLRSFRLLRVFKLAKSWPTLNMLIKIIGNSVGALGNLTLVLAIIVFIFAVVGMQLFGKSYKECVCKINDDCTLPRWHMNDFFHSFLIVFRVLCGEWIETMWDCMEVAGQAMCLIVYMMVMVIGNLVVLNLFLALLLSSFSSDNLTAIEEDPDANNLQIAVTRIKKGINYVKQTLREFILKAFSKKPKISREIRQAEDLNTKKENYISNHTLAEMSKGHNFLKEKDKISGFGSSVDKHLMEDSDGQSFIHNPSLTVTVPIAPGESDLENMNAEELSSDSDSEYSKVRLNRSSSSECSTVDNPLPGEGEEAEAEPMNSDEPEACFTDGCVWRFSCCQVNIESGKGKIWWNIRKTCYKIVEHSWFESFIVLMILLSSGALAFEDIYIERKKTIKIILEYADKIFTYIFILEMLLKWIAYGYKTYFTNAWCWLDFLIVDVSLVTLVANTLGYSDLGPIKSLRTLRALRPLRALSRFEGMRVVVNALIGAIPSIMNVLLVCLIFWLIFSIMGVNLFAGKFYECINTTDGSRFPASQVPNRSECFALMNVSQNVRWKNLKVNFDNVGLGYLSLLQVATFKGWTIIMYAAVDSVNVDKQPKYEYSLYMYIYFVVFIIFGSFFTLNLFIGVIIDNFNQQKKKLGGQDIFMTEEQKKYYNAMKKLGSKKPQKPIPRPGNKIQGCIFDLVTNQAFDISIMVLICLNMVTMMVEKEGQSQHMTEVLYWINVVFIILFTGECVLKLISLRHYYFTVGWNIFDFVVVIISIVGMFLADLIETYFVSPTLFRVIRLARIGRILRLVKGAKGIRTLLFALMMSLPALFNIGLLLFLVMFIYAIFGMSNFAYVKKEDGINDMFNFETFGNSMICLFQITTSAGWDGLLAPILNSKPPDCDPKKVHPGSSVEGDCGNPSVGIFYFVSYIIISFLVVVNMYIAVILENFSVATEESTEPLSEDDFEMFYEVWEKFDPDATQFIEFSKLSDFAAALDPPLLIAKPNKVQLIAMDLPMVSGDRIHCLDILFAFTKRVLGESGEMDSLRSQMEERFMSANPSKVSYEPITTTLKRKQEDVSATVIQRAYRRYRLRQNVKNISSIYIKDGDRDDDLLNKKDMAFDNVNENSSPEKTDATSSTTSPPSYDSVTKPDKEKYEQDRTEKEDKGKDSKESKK

What is called IC50 is the point on the concentration scale where inhibition reaches its midpoint. Low readings indicate higher potency, high ones lower potency. In turn, `CNC(=O)c1cccc(Nc2ncnc(N3CCN(c4cccc(C)c4C)CC3)n2)c1` [Example 81] displayed an IC50 of 1.03 µM. That is a single-digit micromolar value.
The result for `CNC(=O)c1cccc(Nc2ncnc(N3CCN(c4ccc(OC(F)(F)F)cc4)CC3)n2)c1` [Example 82] reads 1.06 µM; that for `CNC(=O)c1cccc(Nc2ncnc(N3CC(Oc4ccc(SC(F)(F)F)cc4)C3)n2)c1` [Example 83], 1.06 µM; that for `CNC(=O)c1cccc(Nc2ncnc(N3CCC(Oc4ccc(Cl)c(F)c4)CC3)n2)c1` [Example 84], 1.08 µM.
Compound `CNC(=O)c1cccc(Nc2ncnc(N3CCC(Oc4ccccc4Cl)CC3)n2)c1` [Example 85] had an IC50 of 1.17 µM. The IC50 values of the last two compounds are within 1.5-fold of each other.
Next, `CNC(=O)c1cccc(Nc2ncnc(N3CC(Oc4cccc(F)c4)C3)n2)c1` [Example 86]: 1.2 µM.
The compound `CNC(=O)c1cccc(Nc2ncnc(N3CC(Oc4ccc(OC)cc4)C3)n2)c1` [Example 87] displayed an IC50 of 1.23 µM.
Next, `CNC(=O)c1cccc(Nc2ncnc(N3CCC(C(=O)c4ccccc4)CC3)n2)c1` [Example 88]: 1.24 µM.
Consider `CNC(=O)c1cccc(Nc2ncnc(N3CCN(c4ccccc4C)CC3)n2)c1` [Example 89], for which the IC50 stood at 1.26 µM.
Next, `CNC(=O)c1cc(Nc2ncnc(N3CC(COc4ccc(Cl)cc4)C3)n2)ccc1Cl` [Example 90]: 1.26 µM; `CNC(=O)c1cccc(Nc2ncnc(N3CC(COc4ccc(Cl)c(F)c4)C3)n2)c1` [Example 91]: 1.29 µM.
Next, `CNC(=O)c1cccc(Nc2ncnc(N3CCc4cc(C5CC5)ccc4C3)n2)c1` [Example 92]: 1.29 µM.
Take `CNC(=O)c1cccc(Nc2ncnc(N3CCC(COc4ccc(F)c(F)c4)CC3)n2)c1` [Example 93]: the midpoint of inhibition, the IC50, lay at 1.3 µM.
Regarding `CNC(=O)c1cccc(Nc2ncnc(N3CC(OCc4ccc(OC(F)(F)F)cc4)C3)n2)c1` [Example 94], the 50% inhibitory concentration (IC50) was 1.32 µM. The IC50 values of the last two compounds are within 1.5-fold of each other.
With `CNC(=O)c1cccc(Nc2ncnc(N3CCN(c4ccccc4F)CC3)n2)c1` [Example 95], the IC50 worked out at 1.35 µM.
Next, `CNC(=O)c1cc(Nc2ncnc(N3CC(COc4ccc(C(F)(F)F)cc4)C3)n2)ccc1Cl` [Example 96]: 1.39 µM; `CNC(=O)c1cc(Nc2ncnc(N3CC(Oc4ccc(F)c(Cl)c4)C3)n2)ccc1Cl` [Example 97]: 1.4 µM; `CNC(=O)c1cc(F)cc(Nc2ncnc(N3CC(Oc4ccc(F)cc4)C3)n2)c1` [Example 98]: 1.41 µM.
`CNC(=O)c1cccc(Nc2ncnc(N3CC=C(c4ccc(C#N)cc4)CC3)n2)c1` [Example 99] had an IC50 of 1.43 µM.
With `CNC(=O)c1cccc(Nc2ncnc(N3CCC(Oc4ccc(OCC(F)(F)F)cc4)CC3)n2)c1` [Example 101], the IC50 turned out to be 1.44 µM.
The result for `CCNC(=O)c1cccc(Nc2ncnc(N3CC(Oc4ccc(F)cc4)C3)n2)c1` [Example 102] reads 1.51 µM; that for `CNC(=O)c1cc(F)cc(Nc2ncnc(N3CCC(c4nc(-c5ccccc5)cs4)CC3)n2)c1` [Example 103], 1.56 µM; that for `CNC(=O)c1cccc(Nc2ncnc(N3CC(Oc4cccc(Cl)c4Cl)C3)n2)c1` [Example 104], 1.57 µM.
The result for `CNC(=O)c1cccc(Nc2ncnc(N3CC(COc4ccc(Cl)cc4F)C3)n2)c1` [Example 105] reads 1.58 µM; that for `CNC(=O)c1cccc(Nc2nccc(N3CC(Oc4ccc(F)c(F)c4)C3)n2)c1` [Example 106], 1.6 µM; that for `CNC(=O)c1cccc(Nc2ncnc(N3CCCN(c4ncc(C(F)(F)F)cc4Cl)CC3)n2)c1` [Example 107], 1.61 µM.
Next, `CNC(=O)c1cccc(Nc2ncnc(N3CCN(c4ccc(Cl)cn4)CC3)n2)c1` [Example 108]: 1.61 µM; `CNC(=O)c1cccc(Nc2ncnc(N3CCN(CCc4ccccc4)CC3)n2)c1` [Example 109]: 1.63 µM; `CNC(=O)c1cccc(Nc2ncnc(N3CCc4cc(OC(F)(F)F)ccc4C3)n2)c1` [Example 110]: 1.67 µM.
As for `CNC(=O)c1cccc(Nc2ncnc(N3CC(Oc4cccc(OC(F)(F)F)c4)C3)n2)c1` [Example 111], the IC50 was determined as 1.69 µM.
Turning to `CNC(=O)c1cc(F)cc(Nc2ncnc(N3CC(COc4ccc(C(F)(F)F)cc4)C3)n2)c1` [Example 112], the IC50 is 1.78 µM.
For `CNC(=O)c1cccc(Nc2ncnc(N3CC(OCc4ccc(Cl)cc4)C3)n2)c1` [Example 113], the IC50 turned out to be 1.82 µM.
The result for `CNC(=O)c1cccc(Nc2ncnc(N3CCN(c4cccc(C)c4)CC3)n2)c1` [Example 114] reads 1.83 µM; that for `CNC(=O)c1cccc(Nc2ncnc(N3CCN(c4ccccc4)CC3)n2)c1` [Example 115], 1.87 µM.
The compound `CNC(=O)c1cc(F)cc(Nc2ncnc(N3CCN(c4cccc(C)n4)CC3)n2)c1` [Example 116] registered an IC50 of 2 µM.
Next, `CNC(=O)c1cccc(Nc2ncnc(N3CCC(c4ccc(C)c(C)c4)CC3)n2)c1` [Example 117]: 2 µM; `CNC(=O)c1cccc(Nc2ncnc(N3CCC(Oc4ccc(C(F)(F)F)cc4)CC3)n2)c1` [Example 118]: 2.02 µM; `CNC(=O)c1cccc(Nc2ncnc(N3CCC(Oc4cccc(OC(F)(F)F)c4)CC3)n2)c1` [Example 119]: 2.07 µM.
The result for `CNC(=O)c1cccc(Nc2ncnc(N[C@H](C)CCc3ccccc3)n2)c1` [Example 120] reads 2.09 µM; that for `CNC(=O)c1cc(F)cc(Nc2ncnc(N3CC(Oc4ccc(F)c(Cl)c4)C3)n2)c1` [Example 121], 2.09 µM.
Consider `CNC(=O)c1cccc(Nc2ncnc(N3CCC(Oc4cccc(Cl)c4)CC3)n2)c1` [Example 122], for which the IC50 came to 2.1 µM.
In turn, `CNC(=O)c1cccc(Nc2ncnc(N3CCc4c(cccc4OC(F)(F)F)C3)n2)c1` [Example 123] displayed an IC50 of 2.13 µM.
`CNC(=O)c1cccc(Nc2ncnc(N3CCC(C#Cc4ccccc4)CC3)n2)c1` [Example 124] returned an IC50 of 2.16 µM.
`CNC(=O)c1cccc(Nc2nccc(N3CC(Oc4ccc(F)cc4F)C3)n2)c1` [Example 125] yielded a 50% inhibitory concentration (IC50) of 2.16 µM.
Next, `CNC(=O)c1cccc(Nc2ncnc(N3CCN(S(=O)(=O)c4ccc(OC(F)(F)F)cc4)CC3)n2)c1` [Example 126]: 2.29 µM; `CCn1c2c(c3ccccc31)CN(c1ncnc(Nc3cccc(C(=O)NC)c3)n1)CC2` [Example 127]: 2.31 µM; `CNC(=O)c1cccc(Nc2ncnc(N3CC(Oc4ccc(C#N)c(Cl)c4)C3)n2)c1` [Example 128]: 2.31 µM.
Take `CNC(=O)c1ccc(Cl)c(Nc2ncnc(N3CC(Oc4ccc(F)cc4)C3)n2)c1` [Example 129]: the IC50 came to 2.37 µM.
`CNC(=O)c1cccc(Nc2ncnc(N3CCc4cc(Cl)ccc4C3)n2)c1` [Example 130] yielded an IC50 of 2.44 µM.
Next, `CNC(=O)c1cccc(Nc2ncnc(N3CCC(OCc4ccc(OC(F)(F)F)cc4)CC3)n2)c1` [Example 131]: 2.49 µM.
In the case of `CNC(=O)c1cccc(Nc2ncnc(N3CC(COc4ccc(Cl)cc4Cl)C3)n2)c1` [Example 132], the IC50 was determined as 2.55 µM.
The compound `CNC(=O)c1cccc(Nc2ncnc(N3CC=C(c4ccc(C)c(C)c4)CC3)n2)c1` [Example 133] returned an IC50 of 2.55 µM.
`CNC(=O)c1cccc(Nc2ncnc(N3CC(Oc4cccc(C(C)(C)C)c4)C3)n2)c1` [Example 134] yielded a concentration for half-maximal inhibition (IC50) of 2.58 µM.
Next, `CNC(=O)c1cccc(Nc2ncnc(N3CCC(c4ccc(OC(F)(F)F)cc4)CC3)n2)c1` [Example 135]: 2.59 µM; `CNC(=O)c1cccc(Nc2ncnc(N3CC=C(c4ccc(OC(F)(F)F)cc4)CC3)n2)c1` [Example 136]: 2.72 µM.
The result for `CNC(=O)c1cccc(Nc2ncnc(N3CCc4c(cccc4OCC(F)(F)F)C3)n2)c1` [Example 137] reads 2.73 µM.
Next, `CNC(=O)c1cccc(Nc2ncnc(N3CCc4c(cccc4OC)C3)n2)c1` [Example 138]: 2.74 µM.
The compound `CNC(=O)c1cccc(Nc2ncnc(N3CCC(n4cc(-c5ccccc5)cn4)CC3)n2)c1` [Example 139] returned an IC50 of 2.74 µM.
The result for `CNC(=O)c1cccc(Nc2ncnc(N3CCC(c4nc(-c5ccccc5)no4)CC3)n2)c1` [Example 140] reads 2.79 µM.
The result for `CNC(=O)c1cccc(Nc2ncnc(N3CC(Oc4ccccc4C(F)(F)F)C3)n2)c1` [Example 141] reads 2.79 µM.
As to `CNC(=O)c1cccc(Nc2ncnc(N3CCc4c(Cl)cccc4C3)n2)c1` [Example 142], the IC50 came out at 2.8 µM. The IC50 values of the last two compounds are within 1.5-fold of each other.
Take `CNC(=O)c1cccc(Nc2ncnc(N3CCC(COc4ccccc4)CC3)n2)c1` [Example 143]: it took 2.8 µM to reach half-maximal inhibition (IC50).
The result for `CNC(=O)c1cccc(Nc2ncnc(N3CCc4c(cnn4-c4ccc(Cl)cc4)C3)n2)c1` [Example 144] reads 2.87 µM.
Compound `CNC(=O)c1cccc(Nc2ncnc(N3CCC(Oc4ccc(Cl)cc4)CC3)n2)c1` [Example 145] had an IC50 of 2.9 µM.
As for `CNC(=O)c1cc(F)cc(Nc2ncnc(N3CCC(Oc4ccc(OC(F)(F)F)cc4)CC3)n2)c1` [Example 146], 2.91 µM corresponded to half-maximal inhibition (IC50).
Turning to `CNC(=O)c1cccc(Nc2ncnc(N3CCC(C#N)(c4ccc(Cl)cc4)CC3)n2)c1` [Example 147], 2.92 µM corresponded to half-maximal inhibition (IC50).
The result for `CNC(=O)c1cccc(Nc2ncnc(N3CC(Oc4ccc(F)cc4F)C3)n2)c1` [Example 148] reads 2.95 µM.
